Source: ChEMBL document CHEMBL3885881, “DrugMatrix”

Species on record: Rattus norvegicus
Test: DrugMatrix - Regimen: Daily Repeat
Format: toxicity, organism-based, Sprague-Dawley
Design: regimen Daily Repeat, gender Male, age 6-8 weeks
Settings: in vivo, po, route oral GAVAGE, vehicle .5 % CMC; for ABSOLUTE BASOPHIL / ABSOLUTE EOSINOPHIL / ABSOLUTE LYMPHOCYTE / ABSOLUTE MONOCYTE / ABSOLUTE SEGMENTED NEUTROPHIL / BASOPHIL / EOSINOPHIL / ERYTHROCYTE COUNT / HEMATOCRIT / HEMOGLOBIN / LEUKOCYTE COUNT / LYMPHOCYTE / MEAN CORPUSCULAR HEMOGLOBIN / MEAN CORPUSCULAR HEMOGLOBIN CONCENTRATION / MEAN CORPUSCULAR VOLUME / MONOCYTE / NEUTROPHIL / NUCLEATED RED BLOOD CELLS / PLATELET COUNT: tissue Blood; for ALANINE AMINOTRANSFERASE / ALBUMIN / ALKALINE PHOSPHATASE / ASPARTATE AMINOTRANSFERASE / BLOOD UREA NITROGEN / CARBON DIOXIDE / CHLORIDE / CHOLESTEROL / CREATINE PHOSPHOKINASE / CREATININE / GLUCOSE / LACTATE DEHYDROGENASE / LIPASE / PHOSPHORUS / POTASSIUM / SODIUM / TOTAL BILIRUBIN / TOTAL PROTEIN / URIC ACID: tissue Plasma
[1] = 200 mg/kg, 120 h, dose level Low, time 5 day
[2] = 1500 mg/kg, 72 h, dose level High, time 3 day
[3] = 1500 mg/kg, 120 h, dose level High, time 5 day

## CCn1cc(C(=O)O)c(=O)c2cc(F)c(N3CCNCC3)cc21 [NORFLOXACIN]
[1]
  ABSOLUTE BASOPHIL: 0 CELLS/uL
  ABSOLUTE EOSINOPHIL: 0 CELLS/uL
  ABSOLUTE LYMPHOCYTE: 13445.67 CELLS/uL
  ABSOLUTE MONOCYTE: 43.67 CELLS/uL
  ABSOLUTE SEGMENTED NEUTROPHIL: 644 CELLS/uL
  BASOPHIL: 0%
  EOSINOPHIL: 0%
  ERYTHROCYTE COUNT: 5.72 x10E6/uL
  HEMATOCRIT: 35.23%
  HEMOGLOBIN: 14.43 G/DL
  LEUKOCYTE COUNT: 14.13 x10E3/uL
  LYMPHOCYTE: 95%
  MEAN CORPUSCULAR HEMOGLOBIN: 25.37 pg
  MEAN CORPUSCULAR HEMOGLOBIN CONCENTRATION: 41 G/DL
  MEAN CORPUSCULAR VOLUME: 61.8 fL
  MONOCYTE: 0.33%
  NEUTROPHIL: 4.67%
  NUCLEATED RED BLOOD CELLS: 0.33 /100WBC
  PLATELET COUNT: 1391.67 x10E3/uL
  ALANINE AMINOTRANSFERASE: 60.33 u/L
  ALBUMIN: 4.43 G/DL
  ALKALINE PHOSPHATASE: 370.33 u/L
  ASPARTATE AMINOTRANSFERASE: 99 u/L
  BLOOD UREA NITROGEN: 15.67 mg/dL
  CARBON DIOXIDE: 26.67 mmol/L
  CHLORIDE: 102 MEQ/L
  CHOLESTEROL: 45.67 mg/dL
  CREATINE PHOSPHOKINASE: 920 u/L
  CREATININE: 0.25 mg/dL
  GLUCOSE: 138.67 mg/dL
  LACTATE DEHYDROGENASE: 195.67 u/L
  LIPASE: 9.33 u/L
  PHOSPHORUS: 12.13 mg/dL
  POTASSIUM: 6.16 MEQ/L
  SODIUM: 145 MEQ/L
  TOTAL BILIRUBIN: 0.2 mg/dL
  TOTAL PROTEIN: 6.3 G/DL
  URIC ACID: 1.53 mg/dL
[2]
  ABSOLUTE BASOPHIL: 0 CELLS/uL
  ABSOLUTE EOSINOPHIL: 108.33 CELLS/uL
  ABSOLUTE LYMPHOCYTE: 13773 CELLS/uL
  ABSOLUTE MONOCYTE: 98.33 CELLS/uL
  ABSOLUTE SEGMENTED NEUTROPHIL: 1087 CELLS/uL
  BASOPHIL: 0%
  EOSINOPHIL: 0.67%
  ERYTHROCYTE COUNT: 5.77 x10E6/uL
  HEMATOCRIT: 37.03%
  HEMOGLOBIN: 14.53 G/DL
  LEUKOCYTE COUNT: 15.07 x10E3/uL
  LYMPHOCYTE: 91.33%
  MEAN CORPUSCULAR HEMOGLOBIN: 25.2 pg
  MEAN CORPUSCULAR HEMOGLOBIN CONCENTRATION: 39.23 G/DL
  MEAN CORPUSCULAR VOLUME: 64.2 fL
  MONOCYTE: 0.67%
  NEUTROPHIL: 7.33%
  NUCLEATED RED BLOOD CELLS: 0 /100WBC
  PLATELET COUNT: 1268.67 x10E3/uL
  ALANINE AMINOTRANSFERASE: 62.67 u/L
  ALBUMIN: 4.2 G/DL
  ALKALINE PHOSPHATASE: 453 u/L
  ASPARTATE AMINOTRANSFERASE: 76 u/L
  BLOOD UREA NITROGEN: 16 mg/dL
  CARBON DIOXIDE: 32.33 mmol/L
  CHLORIDE: 101.33 MEQ/L
  CHOLESTEROL: 46.67 mg/dL
  CREATINE PHOSPHOKINASE: 192 u/L
  CREATININE: 0.24 mg/dL
  GLUCOSE: 128 mg/dL
  LACTATE DEHYDROGENASE: 150 u/L
  LIPASE: 9.33 u/L
  PHOSPHORUS: 11.07 mg/dL
  POTASSIUM: 6.55 MEQ/L
  SODIUM: 147.2 MEQ/L
  TOTAL BILIRUBIN: 0.13 mg/dL
  TOTAL PROTEIN: 6 G/DL
  URIC ACID: 1.13 mg/dL
[3]
  ABSOLUTE BASOPHIL: 0 CELLS/uL
  ABSOLUTE EOSINOPHIL: 0 CELLS/uL
  ABSOLUTE LYMPHOCYTE: 15656 CELLS/uL
  ABSOLUTE MONOCYTE: 107.67 CELLS/uL
  ABSOLUTE SEGMENTED NEUTROPHIL: 603 CELLS/uL
  BASOPHIL: 0%
  EOSINOPHIL: 0%
  ERYTHROCYTE COUNT: 5.97 x10E6/uL
  HEMATOCRIT: 36.5%
  HEMOGLOBIN: 14.8 G/DL
  LEUKOCYTE COUNT: 16.37 x10E3/uL
  LYMPHOCYTE: 95.67%
  MEAN CORPUSCULAR HEMOGLOBIN: 24.83 pg
  MEAN CORPUSCULAR HEMOGLOBIN CONCENTRATION: 40.53 G/DL
  MEAN CORPUSCULAR VOLUME: 61.23 fL
  MONOCYTE: 0.67%
  NEUTROPHIL: 3.67%
  NUCLEATED RED BLOOD CELLS: 0 /100WBC
  PLATELET COUNT: 1304.33 x10E3/uL
  ALANINE AMINOTRANSFERASE: 82 u/L
  ALBUMIN: 4.47 G/DL
  ALKALINE PHOSPHATASE: 305.67 u/L
  ASPARTATE AMINOTRANSFERASE: 89.67 u/L
  BLOOD UREA NITROGEN: 17.33 mg/dL
  CARBON DIOXIDE: 22.33 mmol/L
  CHLORIDE: 102.33 MEQ/L
  CHOLESTEROL: 48 mg/dL
  CREATINE PHOSPHOKINASE: 264 u/L
  CREATININE: 0.43 mg/dL
  GLUCOSE: 145.33 mg/dL
  LACTATE DEHYDROGENASE: 298.67 u/L
  LIPASE: 12 u/L
  PHOSPHORUS: 10.97 mg/dL
  POTASSIUM: 6.62 MEQ/L
  SODIUM: 145.07 MEQ/L
  TOTAL BILIRUBIN: 0.13 mg/dL
  TOTAL PROTEIN: 6.77 G/DL
  URIC ACID: 2.07 mg/dL
